In paper PMC12782889, “A GmNRF5a–GmCERK1–GmCAK1 module mediates chitin/chitosan‐triggered immune response in soybean” (Journal of Integrative Plant Biology, 2025):

Assays:
[1] = test system: GmCERK1-GmCAK1 interaction; assay: Co-immunoprecipitation of GmCERK1-GFP with GmCAK1-HA in N. benthamiana; assay type: cell-based, soybean (Glycine max); details: Co-IP; N. benthamiana leaves treated 50 mg/L for 5 min
Experimental: (§1) Nicotiana benthamiana leaves were harvested 48 h post inoculation (hpi) after agroinfiltration. Samples were ground in liquid nitrogen and incubated for 30 min in a lysis buffer (50 mM Tris-HCl pH 8.0, 150 mM NaCl, 1.0% (v/v) NP-40, 0.1% SDS (w/v) and 0.1% protease inhibitor cocktail ([…]; Sigma, St. Louis, MI, USA)). Supernatant was collected by centrifugation at 21,000 g for 15 min and then incubated with GFP-trap beads (item No.: gta-20; Chromotek, Hauppauge, NY, USA) at 4°C for 2 h. The GFP-trap beads were pelleted by centrifugation at 500 g for 2 min and washed with lysis buffer at least four times. Proteins were eluted by boiling the beads in a protein loading buffer for 10 min and detected by immunoblot analysis with anti-GFP (Cat No. M20004; Abmart, Shanghai, China) or anti-HA (Cat No. M20013; Abmart, Shanghai, China).

GmNFR5a homodimer = assay: Co-immunoprecipitation of GFP-tagged GmNFR5a with HA-tagged GmNFR5a in N. benthamiana; assay type: cell-based, soybean (Glycine max); details: Co-IP; N. benthamiana leaves treated 50 mg/L for 5 min
Experimental: as §1

GmCERK1^ECD = GmCERK1^ECD (Glycine max, UniProt K7N1N7); assay: Microscale thermophoresis (MST) binding to GmCERK1^ECD; set-up: species or system soybean (Glycine max); details: ligand dp6, His-tagged protein purified from Pichia pastoris, read-out: dissociation constant (K D) with GmCERK1^ECD
Source text: (§2) The ectodomains of GmCERK1, GmNFR5a, and mutants were cloned into the yeast expression vector pPICZαA (Thermo Fisher Scientific, Shanghai, China) through the double digestion and ligation using the restriction endonuclease EcoRI/XbaI (NEB, Suzhou, China) and T4 ligase. Then, the linearized recombinant plasmid pPICZαA‐GmCERK1 and pPICZαA‐GmNFR5a were transformed into P. pastoris X‐33. The positive colonies were selected on YPDS medium (1% w/v yeast extract, 2% w/v peptone, 2% w/v glucose, 2% w/v agar, 100 μg/mL antibiotic Zeocin (Thermo Fisher Scientific)) plates and verified by direct DNA sequencing. Protein expression was carried out initially in BMGY media (100 mM potassium phosphate pH 6.0, 1.34% w/v YNB, 4 × 10^−5% w/v biotin, 1% v/v glycerol) at 28°C with shaking (180 rpm) until the OD600 reached 2.0–6.0. The cell pellet was transferred into BMMY medium (100 mM potassium phosphate pH 6.0, 1.34% w/v YNB, 4 × 10^−5% w/v biotin, 0.5% v/v methanol) and continuously supplied with the addition of 0.5% (v/v) methanol every day for 5 d. […]
(§3) GmCERK1^ECD, GmNFR5a^ECD, and all mutants were labeled with a fluorescent dye using the Monolith Protein Labeling Kit RED‐NHS second Generation (MO‐L011). […] The data were analyzed and fitted by plotting ligand concentrations against bound fractions using the MO.Affinity Analysis v3.0.5 software. […]

[2] = test system: GmNFR5a-GmCERK1 interaction; assay: Co-immunoprecipitation of GmNFR5a-GFP with GmCERK1-HA in N. benthamiana; assay type: cell-based, soybean (Glycine max); details: Co-IP; N. benthamiana leaves treated 50 mg/L for 5 min
Experimental: as §1

Phytophthora sojae P6497 = assay: P. sojae infection of pretreated soybean etiolated hypocotyls; assay type: in vivo, Phytophthora sojae on soybean (Glycine max); details: for biomass of P. sojae: dp6, 50 mg/L, 24 h before inoculation with zoospores, etiolated hypocotyls, 48 hpi, genomic DNA qPCR, vs mock dH2O
Experimental: For soybean etiolated hypocotyls inoculation assays, etiolated hypocotyls of soybean (cultivar Williams) were inoculated with P. sojae zoospore suspensions (100 zoospores). Infected etiolated hypocotyls were maintained at 25°C in the dark for 2 d, photographed and collected for biomass detection. For soybean hairy‐root inoculation assays, transgenic hairy roots were soaked in CTOS/CSOS (50 mg/L) or mock (dH2O) for 12 h and then were infected with red fluorescent protein (RFP)‐labeled P. sojae strain P6497, and fluorescence was visualized in the infected area of soybean hairy root and the biomass of P. sojae was determined by qRT‐PCR at 48 hpi.

GmCERK1 homodimer = assay: Co-immunoprecipitation of GmCERK1-GFP with GmCERK1-HA in N. benthamiana; assay type: cell-based, soybean (Glycine max); details: Co-IP; N. benthamiana leaves treated 50 mg/L for 5 min
Experimental: as §1

AtCERK1^ECD = target: T1, AtCERK1^ECD (Arabidopsis thaliana, UniProt A8R7E6); assay: Microscale thermophoresis (MST) binding to AtCERK1^ECD (positive control); details: ligand dp6, protein purified from Pichia pastoris, read-out: dissociation constant (K D) with AtCERK1^ECD
T1 construct: ectodomain of AtCERK1 (aa25–224); made in house; host or cells: Pichia pastoris X-33
T1 sequence (A8R7E6 25-224): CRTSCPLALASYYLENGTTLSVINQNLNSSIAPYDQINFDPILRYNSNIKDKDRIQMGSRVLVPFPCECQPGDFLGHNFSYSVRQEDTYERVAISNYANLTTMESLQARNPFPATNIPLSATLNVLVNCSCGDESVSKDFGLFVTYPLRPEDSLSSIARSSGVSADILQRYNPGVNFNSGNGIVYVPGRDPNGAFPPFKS

GmNFR5a^ECD = GmNFR5a^ECD (Glycine max, UniProt A5YJV9); assay: Microscale thermophoresis (MST) binding to GmNFR5a^ECD; set-up: species or system soybean (Glycine max); details: ligand dp6, His-tagged protein purified from Pichia pastoris, read-out: dissociation constant (K D) with GmNFR5a^ECD
Source text: as §2, §3

GmNFR5a^ECD, sequence (A5YJV9 entry or part of it): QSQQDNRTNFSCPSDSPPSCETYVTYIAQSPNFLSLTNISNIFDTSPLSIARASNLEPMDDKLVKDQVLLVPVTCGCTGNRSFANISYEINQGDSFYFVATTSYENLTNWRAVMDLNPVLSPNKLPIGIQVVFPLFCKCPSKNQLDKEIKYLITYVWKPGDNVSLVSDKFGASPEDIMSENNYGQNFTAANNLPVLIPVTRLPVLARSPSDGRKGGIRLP
GmCERK1^ECD, sequence (K7N1N7 entry or part of it): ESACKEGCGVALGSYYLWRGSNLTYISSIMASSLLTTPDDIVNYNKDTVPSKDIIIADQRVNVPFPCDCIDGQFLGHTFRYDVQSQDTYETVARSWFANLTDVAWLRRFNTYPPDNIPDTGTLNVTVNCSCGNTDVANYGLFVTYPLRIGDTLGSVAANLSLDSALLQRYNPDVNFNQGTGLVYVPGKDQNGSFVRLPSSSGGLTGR

Compound	interaction between GmCERK1 and GmCAK1 [1]	GmNFR5a homodimer formation (GmNFR5a homodimer)	Kd (GmCERK1^ECD)	GmNFR5a interaction with GmCERK1 [2]	biomass of P. sojae (Phytophthora sojae P6497)	plant resistance elicited, compared with CTOS (Phytophthora sojae P6497; soybean etiolated hypocotyls, P. sojae (Figure 1E, F))	GmCERK1-GFP / GmCERK1-HA interaction (homodimer) (GmCERK1 homodimer)	Kd (AtCERK1^ECD)	Kd (GmNFR5a^ECD)
N[C@H]1[C@H](O[C@H]2[C@H](O)[C@@H](N)[C@H](O[C@H]3[C@H](O)[C@@H](N)[C@H](O[C@H]4[C@H](O)[C@@H](N)[C@H](O[C@H]5[C@H](O)[C@@H](N)[C@H](O[C@H]6[C@H](O)[C@@H](N)C(O)O[C@@H]6CO)O[C@@H]5CO)O[C@@H]4CO)O[C@@H]3CO)O[C@@H]2CO)O[C@H](CO)[C@@H](O)[C@@H]1O (some centres unmarked) [CSOS (dp6), chitosan oligosaccharide]	diminished	strong homodimer	10.6 ± 1.46 mM	interacted strongly	significantly lower	somewhat weaker	strong interaction	2.73 ± 0.43 mM	7.04 ± 2.62 mM
CC(=O)N[C@H]1[C@H](O[C@H]2[C@H](O)[C@@H](NC(C)=O)[C@H](O[C@H]3[C@H](O)[C@@H](NC(C)=O)C(O)O[C@@H]3CO)O[C@@H]2CO)O[C@H](CO)[C@@H](O[C@@H]2O[C@H](CO)[C@@H](O[C@@H]3O[C@H](CO)[C@@H](O[C@@H]4O[C@H](CO)[C@@H](O)[C@H](O)[C@H]4NC(C)=O)[C@H](O)[C@H]3NC(C)=O)[C@H](O)[C@H]2NC(C)=O)[C@@H]1O (some centres unmarked) [CTOS (dp6), chitin oligosaccharide]	diminished	strong homodimer	3.25 ± 0.95 mM	interacted strongly	significantly lower	–	strong interaction	0.66 ± 0.27 mM	20.5 ± 6.07 mM
